Where two headings read alike, the source gives them in different places.
Assays:
ER = test: Assay system I: transcriptional activation of an ER-dependent reporter gene; assay type: cell-based; conditions: in vitro
Procedure: The problem of the invention is achieved by a method of an in vitro screening for a test substance (ligand) involving selecting and detecting by means of at least two assay systems comprising the following steps: • (i) in a first cellular or tissue assay system selecting the ligand having transcriptional activity • which is mediated by activation of ER and which is measured by detecting potency in the cellular or tissue assay system comprising ER and an ER-driven reporter gene, • whereby, in the first assay system, the ligand activates the potency with an EC50(ER) (half-maximally effective ligand concentration) lower than or equal to 10 nmol/l, and • detecting the activation of the transcription; and • (ii) in a second cell-free or enzymatic assay system, selecting the physical-chemical interaction (recruitment) of SRC-1 and fragments thereof, and of the ER • which is measured by detecting the potency of this interaction in the cell-free or enzymatic system • wherein the ligand activates the ER and induces interaction with the co-present SRC-1 and fragments thereof in the second assay system with a EC50(ER+SRC) higher than or equal to 100 nmol/l, and detecting the potency of the physical-chemical interaction of SRC-1 and fragments thereof and of ER.
The assay employed in this Example only used compounds which are characterized by estrogenic activity. The assays for finding the estrogenic compounds have already been developed and published. These assays are standard assays well known to the person skilled in the art.
(§1) Using the assay described in Example 2, we selected the compound 3′ 15β-dihydrocycloprop[14,15]estra-1,3,5(10),8-tetraene-3,17α-diol [iii] for further examination of its neurotropic and systemic estrogenic effects.

ER and SRC-1 protein = test: Assay system II: SRC-1 recruitment by the activated ER (fluorescence resonance energy transfer, cell-free); assay type: biochemical; conditions: for Assay system II: First signs of significant interaction between ER and SRC-1 protein (dose in M): 175 ng his-tagged SRC-1 per well, significant = more than 2 times standard deviation from baseline; for Ratio between values measured in assay systems II and I: assay II dose / assay I EC50
Description: Recruitment: Recruitment of SRC-1 relates to the comparison of the degrees of association by protein-protein interaction between co-present ER and SRC-1 in the absence or presence of an ER-agonist. Numerically, recruitment is defined by the molar concentration of ER-agonist which is required for the occurrence of a significant (more than 2 times standard deviation from baseline) protein-protein interaction between co-expressed ER and SRC-1 in a test system. The baseline is defined by the interaction measured in an identical test system to which no […] has been added.
The assay used in the present Example for investigating the recruitment of ER and co-activator SRC-1 is performed according to the publication of Gauchao ZHOH et al. (1998) Nuclear receptors have distinct affinities for co-activators: Characterization by fluorescence resonance energy transfer, Mol Endo, Vol 12, pp 1594–1604 especially on Page 1602. Furthermore, the assaysystem is described in WO/18124 from Cummings et al. Instead of the euriopium cryptate, mentioned in the International Application, europium chelate—100 ng of euriopium labeled anti-GST-antibody per well—is used in the assays. The labeled antibody was delivered from Wallac, now Perkin Elmer Lifesciences. (Eu-W1024 labeled anti-GST-Antibody for Lance Assays, Part Number AD 0065)
The SRC-1 is used at a concentration of 175 ng his-tagged SRC-1 per well. SRC-1 is present in every well of this assay system.

bcl-2 = test: Transcription of estrogen-regulated gene bcl-2 in cerebral cortex of ovariectomized female rats; assay type: in vivo, rat; conditions: subcutaneous, seven days, equal dose comparison with 17β-estradiol
Procedure: (§2) Different doses of the compound of interest and the reference 17β-estradiol were administered subcutaneously in ovariectomized female rats for seven consecutive days. The effect of the compounds on the cognitive performance of experimental animals was evaluated by monitoring the acquisition, consolidation and retrieval of active avoidance behavior. Upon sacrifice, morphometric assessment was made of estrogen-sensitive organs (uterus, thymus, adrenal glands). Neurochemical effects were assessed by quantification of the transcription of ER-induced CNS-specific genes in different brain areas, endowed with different amounts of SRC-1.

ERα = target: T1, ERα (Homo sapiens, UniProt P03372); test: Relative binding affinity to ERα; conditions: relative to 17β-estradiol
T1 sequence (P03372 1-595): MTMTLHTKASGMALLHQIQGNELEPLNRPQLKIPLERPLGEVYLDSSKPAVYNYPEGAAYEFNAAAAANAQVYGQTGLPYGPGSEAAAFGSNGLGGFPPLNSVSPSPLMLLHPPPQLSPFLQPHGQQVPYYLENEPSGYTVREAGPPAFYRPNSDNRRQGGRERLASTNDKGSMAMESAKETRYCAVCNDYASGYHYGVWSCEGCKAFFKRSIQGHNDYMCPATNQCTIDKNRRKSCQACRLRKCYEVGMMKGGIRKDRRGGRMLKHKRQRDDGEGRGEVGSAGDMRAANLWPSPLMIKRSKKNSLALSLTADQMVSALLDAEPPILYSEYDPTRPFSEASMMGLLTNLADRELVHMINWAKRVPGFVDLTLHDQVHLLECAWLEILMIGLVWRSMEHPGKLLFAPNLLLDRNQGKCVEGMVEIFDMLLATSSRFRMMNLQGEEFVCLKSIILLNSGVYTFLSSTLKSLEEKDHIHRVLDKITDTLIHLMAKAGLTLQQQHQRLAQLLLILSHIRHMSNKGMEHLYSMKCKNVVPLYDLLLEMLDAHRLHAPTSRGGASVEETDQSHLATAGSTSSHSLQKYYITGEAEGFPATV
Description: as §1

oxytocin receptors = test: Estrogen-dependent expression of oxytocin receptors in ventromedial nucleus of ovariectomized female rats; assay type: in vivo, rat; conditions: subcutaneous, seven days, compared with 17β-estradiol
Procedure: as §2

[1] = tested on: ovariectomized female rats; test: Active avoidance behavior (cognitive performance) in ovariectomized female rats; assay type: in vivo, rat; conditions: subcutaneous, seven days, compared with 17β-estradiol
Procedure: as §2

ERβ = ERβ (Homo sapiens, UniProt Q92731); test: Relative binding affinity to ERβ; conditions: relative to 17β-estradiol
Description: as §1

[2] = tested on: peripheral estrogen-target organs (uterus, thymus, adrenal glands); test: Morphometric assessment of estrogen-sensitive organs in ovariectomized female rats; assay type: in vivo, rat; conditions: subcutaneous
Procedure: as §2

[3] = read-out: Assay system I: Transcriptional activation of an ER-dependent reporter gene (EC50 in M) (converted)

SMILES: CC12CCC3c4ccc(O)cc4CCC3C1CCC2O (single isomer, unassigned; ent-1) [[ii], ent-1,3,5(10)-estratriene-3,17β-diol]
- EC50 (ER; read-out: Assay system I: Transcriptional activation of an ER-dependent reporter gene (EC50 in M)): […]
- Assay system II: First signs of significant interaction between ER and SRC-1 protein (dose in M) (ER and SRC-1 protein): […]
- Ratio between values measured in assay systems II and I (ER and SRC-1 protein): […]

Sequence of ERβ (Q92731 whole entry, species assumed): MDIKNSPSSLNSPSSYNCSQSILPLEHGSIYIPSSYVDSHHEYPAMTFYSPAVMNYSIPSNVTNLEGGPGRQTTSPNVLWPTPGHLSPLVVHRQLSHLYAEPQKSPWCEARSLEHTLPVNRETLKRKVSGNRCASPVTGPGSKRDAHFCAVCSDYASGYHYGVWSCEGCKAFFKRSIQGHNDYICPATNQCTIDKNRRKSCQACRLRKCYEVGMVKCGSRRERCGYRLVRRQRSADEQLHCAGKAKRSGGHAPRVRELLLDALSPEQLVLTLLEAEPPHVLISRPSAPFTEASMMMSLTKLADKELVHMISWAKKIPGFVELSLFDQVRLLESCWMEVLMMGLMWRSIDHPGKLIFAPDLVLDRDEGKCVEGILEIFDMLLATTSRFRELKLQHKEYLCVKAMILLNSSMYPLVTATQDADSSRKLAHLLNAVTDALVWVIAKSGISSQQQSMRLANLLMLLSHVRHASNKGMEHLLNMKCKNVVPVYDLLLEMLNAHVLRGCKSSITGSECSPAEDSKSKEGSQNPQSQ

SMILES: CC12CCC3=C(CCc4cc(O)ccc43)C13CC3CC2O (stereo not drawn) [[iii], 3′,15β-dihydrocycloprop[14,15]-estra-1,3,5(10),8-tetraene-3,17α-diol]
- stimulation of transcription of antiapoptotic estrogen-regulated gene bcl-2 in the cerebral cortex (bcl-2): to a higher degree than does 17β-estradiol given at an equal dose
- EC50 (ER; [3]): 1 nM
- relative affinity to ERα, of that of 17β-estradiol (ERα): 25–30 per cent
- induction of estrogen-dependent expression of oxytocin receptors in the ventromedial nucleus (VMN) (oxytocin receptors): to a significantly lower degree than 17β-estradiol
- Assay system II: First signs of significant interaction between ER and SRC-1 protein (dose in M) (ER and SRC-1 protein): 10^−7 M
- Ratio between values measured in assay systems II and I (ER and SRC-1 protein): 100.0
- behavioral (cognitive) effect, retention of newly acquired active avoidance behavior [1]: indistinguishable from that of 17β-estradiol
- relative affinity to ERβ, of that of 17β-estradiol (ERβ): 25–30 per cent
- capacity to induce estrogen-like effects in peripheral estrogen-target organs (uterus, thymus, adrenal glands) ([2]; seven consecutive days, compared with 17β-estradiol): several times lower than that of the natural estrogen 17β-estradiol
- estrogen-dependent changes in peripheral estrogen-sensitive organs at behaviorally effective treatment ([2]; seven days): not associated with estrogen-dependent changes in peripheral estrogen-sensitive organs

SMILES: C=CCC1CC(O)C2(C)CCC3c4ccc(O)cc4CCC3C12 (stereo not drawn) [[iv], 15β-allyl-estra-1,3,5,(10)-triene-3,17β-diol]
- EC50 (ER; [3]): 4 nM
- Assay system II: First signs of significant interaction between ER and SRC-1 protein (dose in M) (ER and SRC-1 protein): 10^−7 M
- Ratio between values measured in assay systems II and I (ER and SRC-1 protein): 25.0

SMILES: CCCC1CC(O)C2(C)CCC3c4ccc(O)cc4CCC3C12 (stereo not drawn) [[v], 15β-propyl-estra-1,3,5,(10)-triene-3,17β-diol]
- EC50 (ER; [3]): 10 nM
- Assay system II: First signs of significant interaction between ER and SRC-1 protein (dose in M) (ER and SRC-1 protein): 10^−7 M
- Ratio between values measured in assay systems II and I (ER and SRC-1 protein): 10.0
